Patent US7932262B2 (Novartis AG, priority 2006, dated 2011)
Like-named read-outs stand apart in the source and are kept apart here.

Columns and labels:
A2780 cells = test: Cell Proliferation Assay (Cell Titer Glo), A2780; type: cell-based; conditions: Homo sapiens; Cell Proliferation Assay, A2780; read-out: CPEC50 A2780
Description: IV. Cell Proliferation Assay Protocol:
A2780, PC-3, or PC3MM cells were seeded at 1000 cells/well in 100 μL/well (10.000 cells/mL) growth media in 96-well plates. Cells were allowed to adhere to the bottom of plates for 3-5 hours in a 37° C. 5% CO2 incubator. Compounds were dissolved in DMSO and then transferred to the cell plates. The cells were incubated with the compounds for 3 days in a 37° C. 5% CO2 incubator. The growth medium containing the compounds was then removed from the cells and fresh medium was added, followed by 100 μL of Cell Titer Glo assay reagent (Promega). This mixture was shaken for 1 minute and then incubated without shaking for 10 minutes. Activity determinations for the compounds were made by detection on a Trilux Instrument.

PDK1 kinase = biological target: T1, PDK1 kinase (Homo sapiens, UniProt O15530); test: PDK1 Kinase Alpha Screen Assay; type: biochemical
T1 sequence (O15530 1-556): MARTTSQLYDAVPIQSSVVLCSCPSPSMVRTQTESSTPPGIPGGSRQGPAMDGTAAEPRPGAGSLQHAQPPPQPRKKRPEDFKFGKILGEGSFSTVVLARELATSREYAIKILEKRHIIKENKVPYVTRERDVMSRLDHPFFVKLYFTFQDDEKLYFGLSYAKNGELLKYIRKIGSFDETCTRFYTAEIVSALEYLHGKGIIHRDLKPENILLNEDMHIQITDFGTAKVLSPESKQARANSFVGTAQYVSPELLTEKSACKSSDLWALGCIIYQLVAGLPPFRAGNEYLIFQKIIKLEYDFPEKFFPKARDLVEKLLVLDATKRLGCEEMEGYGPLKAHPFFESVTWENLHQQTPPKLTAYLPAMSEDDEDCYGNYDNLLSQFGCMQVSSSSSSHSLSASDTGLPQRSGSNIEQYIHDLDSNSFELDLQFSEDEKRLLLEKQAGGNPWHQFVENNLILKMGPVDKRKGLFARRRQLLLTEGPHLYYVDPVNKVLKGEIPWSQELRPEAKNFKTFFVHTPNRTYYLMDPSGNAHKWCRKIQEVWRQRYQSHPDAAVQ
Procedure, shortened: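 PDK1 phosphorylated 50 nM biotinylated PDK1-4 peptide with 10 uM ATP in Tris pH 7.5, 10 mM MgCl2, 2 mM DTT, 2.5% DMSO for 3-18 hours. After EDTA stop, phosphopeptide was detected by AlphaScreen using phospho-(Ser/Thr) PKA substrate antibody with protein A/streptavidin beads, read after overnight incubation.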

PC-3 cells = test: Cell Proliferation Assay (Cell Titer Glo), PC-3 cell line; type: cell-based; conditions: Homo sapiens, PC-3, PC3 cells; read-out: CPEC50 PC3
Procedure, shortened: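 PC-3 cells, 1000 cells/well, left to adhere 3-5 h, then exposed for 3 days at 37° C to compounds as 1:3 serial dilutions from 500× DMSO stocks diluted in growth medium. Medium then replaced with fresh medium and viability read by Cell Titer Glo luminescence.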

[1] = head of the second part of Table 4: BV11261, read-out: PDK1 BV11261

SMILES | EC50 (A2780 cells) | IC50 (PDK1 kinase; read-out: PDK1 IC50) | EC50 (PC-3 cells) | IC50 (PDK1 kinase; [1])
COc1ncccc1-c1ccc2cnc(Nc3ccc(S(N)(=O)=O)cc3)nc2c1 [Compound 314, 4-(7-(2-methoxypyridin-3-yl)quinazolin-2-ylamino)benzenesulfonamide] | 5 to 10 µM |  |  | 
Cn1cc(-c2ccc3cnc(Nc4ccc(S(=O)(=O)N5CCOCC5)cc4)nc3c2)cn1 [Compound 317, 7-(1-methyl-1H-pyrazol-4-yl)-N-(4-(morpholinosulfonyl)phenyl)quinazolin-2-amine] | < 5 µM |  |  | 
NS(=O)(=O)c1ccc(Nc2ncc3cccc(C(=O)NCc4ccccn4)c3n2)cc1 [Compound 419, N-(pyridin-2-ylmethyl)-2-(4-sulfamoylphenylamino)quinazoline-8-carboxamide] | 5 to 10 µM |  |  | 
CC(C)(C)OC(=O)N1CCC(Oc2c(Br)ccc3cnc(Nc4ccc(S(N)(=O)=O)cc4)nc23)CC1 [Compound 420, tert-butyl 4-(7-bromo-2-(4-sulfamoylphenylamino)quinazolin-8-yloxy)piperidine-1-carboxylate] | < 5 µM |  |  | 
CC(C)Oc1cccc2cnc(Nc3cccnc3)nc12 [Compound 522, 8-isopropoxy-N-(pyridin-3-yl)quinazolin-2-amine] | 5 to 10 µM |  |  | 
CC(C)Oc1cccc2cnc(NC3CCN(C)CC3)nc12 [Compound 557, 8-isopropoxy-N-(1-methylpiperidin-4-yl)quinazolin-2-amine] | 5 to 10 µM |  |  | 
CC(C)Oc1cccc2cnc(NCc3ccc(S(N)(=O)=O)cc3)nc12 [Compound 558, 4-((8-isopropoxyquinazolin-2-ylamino)methyl)benzenesulfonamide] | 5 to 10 µM |  |  | 
COc1cc(-c2ccc3cnc(Nc4ccc(S(N)(=O)=O)cc4)nc3c2)ccn1 [Compound 560, 4-(7-(2-methoxypyridin-4-yl)quinazolin-2-ylamino)benzenesulfonamide] | 5 to 10 µM |  |  | 
CNC(=O)c1cc(Oc2ccc3cnc(Nc4ccc(S(N)(=O)=O)cc4)nc3c2)ccn1 [Compound 563, N-methyl-4-(2-(4-sulfamoylphenylamino)quinazolin-7-yloxy)picolinamide] | 5 to 10 µM |  |  | 
CNC(=O)c1cccc2cnc(Nc3ccc(S(N)(=O)=O)cc3)nc12 [Compound 623, N-methyl-2-(4-sulfamoylphenylamino)quinazoline-8-carboxamide] | < 5 µM |  |  | 
NS(=O)(=O)c1ccc(Nc2ncc3cccc(C(=O)NC4CCOCC4)c3n2)cc1 [Compound 625, 2-(4-sulfamoylphenylamino)-N-(tetrahydro-2H-pyran-4-yl)quinazoline-8-carboxamide] | < 5 µM |  |  | 
CC(=O)NCCNC(=O)c1cccc2cnc(Nc3ccc(S(N)(=O)=O)cc3)nc12 [Compound 626, N-(2-acetamidoethyl)-2-(4-sulfamoylphenylamino)quinazoline-8-carboxamide] | 5 to 10 µM |  |  | 
CS(=O)(=O)CCNC(=O)c1cccc2cnc(Nc3ccc(S(N)(=O)=O)cc3)nc12 [Compound 627, N-(2-(methylsulfonyl)ethyl)-2-(4-sulfamoylphenylamino)quinazoline-8-carboxamide] | 5 to 10 µM |  |  | 
CC(C)Cn1cc(-c2ccc3cnc(Nc4ccc(N5CCN(C)CC5)cc4)nc3c2)cn1 [Compound 1025, 7-(1-isobutyl-1H-pyrazol-4-yl)-N-(4-(4-methylpiperazin-1-yl)phenyl)quinazolin-2-amine] |  | < 5 µM | < 5 µM | 
Cc1ccc(Nc2ncc3ccc(O)c(C4CCN(C(C)C)CC4)c3n2)cc1NS(C)(=O)=O [Compound 1026, N-(5-(7-hydroxy-8-(1-isopropylpiperidin-4-yl)quinazolin-2-ylamino)-2-methylphenyl)methanesulfonamide] |  | < 5 µM | < 5 µM | 
CC(=O)Nc1ccc(Nc2ncc3cccc(-c4ccc(NCCN5CCCC5)nc4)c3n2)cc1C [Compound 1027, N-(2-methyl-4-(8-(6-(2-(pyrrolidin-1-yl)ethylamino)pyridin-3-yl)quinazolin-2-ylamino)phenyl)acetamide] |  | < 5 µM | < 5 µM | 

Second part, the molecule after the results:

EC50 (A2780 cells) | IC50 (PDK1 kinase; read-out: PDK1 IC50) | EC50 (PC-3 cells) | IC50 (PDK1 kinase; [1]) | SMILES
 | < 5 µM | 5 to 10 µM |  | CS(=O)(=O)c1ccc(Nc2ncc3cccc(-c4ccc(NCCN5CCCC5)nc4)c3n2)cc1 [Compound 1028, N-(4-(methylsulfonyl)phenyl)-8-(6-(2-(pyrrolidin-1-yl)ethylamino)pyridin-3-yl)quinazolin-2-amine]
 | < 5 µM | < 5 µM |  | CN1CCN(c2ccc(-c3cccc4cnc(Nc5ccc(S(=O)(=O)N6CCOCC6)cc5)nc34)cn2)CC1 [Compound 1029, 8-(6-(4-methylpiperazin-1-yl)pyridin-3-yl)-N-(4-(morpholinosulfonyl)phenyl)quinazolin-2-amine]
 | < 5 µM | 5 to 10 µM |  | Cc1cc(Nc2ncc3ccc(O)c(C4CCN(C(C)C)CC4)c3n2)ccc1F [Compound 1030, 2-(4-fluoro-3-methylphenylamino)-8-(1-isopropylpipenidin-4-yl)quinazolin-7-ol]
 |  | < 5 µM | < 5 µM | C#Cc1cc(OC2CCCNCC2)c2nc(Nc3ccc(N4CCOCC4)cc3)ncc2c1 (centres unmarked) [Compound 1031, 8-(azepan-4-yloxy)-6-ethynyl-N-(4-morpholinophenyl)quinazolin-2-amine]
 |  | < 5 µM | < 5 µM | C#Cc1cc(OC2CCNCC2)c2nc(Nc3ccc(C(=O)N4CCOCC4)cc3)ncc2c1Cl [Compound 1032, (4-(5-chloro-6-ethynyl-8-(piperidin-4-yloxy)quinazolin-2-ylamino)phenyl)(morpholino)methanone]
 |  | < 5 µM | < 5 µM | COc1c(-c2cnn(C)c2)cc(Cl)c2cnc(Nc3ccc(C(=O)N4CCOCC4)cc3)nc12 [Compound 1033, (4-(5-chloro-8-methoxy-7-(1-methyl-1H-pyrazol-4-yl)quinazolin-2-ylamino)phenyl)(morpholino)methanone]
 |  | < 5 µM | < 5 µM | COc1c(-c2cnn(C)c2)cc(Cl)c2cnc(Nc3ccc(C(=O)NC(C)C)cc3)nc12 [Compound 1034, 4-(5-chloro-8-methoxy-7-(1-methyl-1H-pyrazol-4-yl)quinazolin-2-ylamino)-N-isopropylbenzamide]
 |  | < 5 µM | < 5 µM | COc1c(-c2cnn(C)c2)cc(Cl)c2cnc(Nc3ccc(N4CCOCC4)cc3)nc12 [Compound 1035, 5-chloro-8-methoxy-7-(1-methyl-1H-pyrazol-4-yl)-N-(4-morpholinophenyl)quinazolin-2-amine]
 |  | < 5 µM | < 5 µM | COc1c(-c2cnn(C)c2)cc(Cl)c2cnc(Nc3cccc(N4CCOCC4)c3)nc12 [Compound 1036, 5-chloro-8-methoxy-7-(1-methyl-1H-pyrazol-4-yl)-N-(3-morpholinophenyl)quinazolin-2-amine]
 |  | < 5 µM | < 5 µM | COc1c(-c2cnn(C)c2)cc(Cl)c2cnc(Nc3cc(CN(C)C)cc(NC(C)=O)c3)nc12 [Compound 1037, N-(3-(5-chloro-8-methoxy-7-(1-methyl-1H-pyrazol-4-yl)quinazolin-2-ylamino)-5-((dimethylamino)methyl)phenyl)acetamide]
 |  | < 5 µM | < 5 µM | COc1c(-c2cnn(C)c2)cc(Cl)c2cnc(Nc3ccc(C(=O)NC4CC4)cc3)nc12 [Compound 1038, 4-(5-chloro-8-methoxy-7-(1-methyl-1H-pyrazol-4-yl)quinazolin-2-ylamino)-N-cyclopropylbenzamide]
 |  | < 5 µM | < 5 µM | C#Cc1cc2cnc(Nc3ccc(C(=O)NC(C)C)cc3)nc2cc1-c1ccc2c(c1)CCNC2=O [Compound 1039, 4-(6-ethynyl-7-(1-oxo-1,2,3,4-tetrahydroisoquinolin-6-yl)quinazolin-2-ylamino)-N-isopropylbenzamide]
 |  | 5 to 10 µM | < 5 µM | CC(C)NC(=O)c1ccc(Nc2ncc3ccc(-c4ccc5c(c4)CCNC5=O)cc3n2)cc1 [Compound 1040, N-isopropyl-4-(7-(1-oxo-1,2,3,4-tetrahydroisoquinolin-6-yl)quinazolin-2-ylamino)benzamide]
 |  | 5 to 10 µM | < 5 µM | C#Cc1cc2cnc(Nc3ccc(C(=O)N4CCOCC4)cc3)nc2cc1-c1ccc2c(c1)CCNC2=O [Compound 1041, 6-(6-ethynyl-2-(4-(morpholine-4-carbonyl)phenylamino)quinazolin-7-yl)-3,4-dihydroisoquinolin-1(2H)-one]
